Test results: the NIST ThermoML archive (doi:10.1016/j.fluid.2006.07.003)
± gives the expanded uncertainty stated by the source.

Columns and labels:
[1] = Liquid; for mass density: 298.15 K, 101.33 kPa
[2] = refractive index (Na D-line) (dimensionless); conditions: 298.15 K; 101.33 kPa; Liquid; Standard Abbe refractometry

mass density [1]	vapor or sublimation pressure ([1]; 369.75 K)	refractive index [2]	vapor or sublimation pressure ([1]; 410.62 K)	vapor or sublimation pressure ([1]; 363.16 K)	Compound
799.62 ± 0.48 kg/m3	101.3 ± 1.8 kPa	1.3836 ± 0.0007			CCCO [propan-1-ol]
810.89 ± 0.77 kg/m3		1.408 ± 0.0008	101.3 ± 1.8 kPa		CCCCCO [pentan-1-ol]
741.81 ± 0.91 kg/m3		1.3784 ± 0.0008		101.3 ± 1.8 kPa	CCCOCCC [dipropyl ether]
